Measurements taken from publication PMC3848474, “Different effects of progesterone and estradiol on chimeric and wild type aldosterone synthase in vitro” (Reproductive Biology and Endocrinology : RB&E, 2013).
pIC50: −log10 of the molar value.

Molecular target: T1, wild type aldosterone synthase (ASWT, CYP11B2) (Homo sapiens, UniProt P19099)
T1 construct: full ASWT cDNA
T1 sequence (P19099 25-503): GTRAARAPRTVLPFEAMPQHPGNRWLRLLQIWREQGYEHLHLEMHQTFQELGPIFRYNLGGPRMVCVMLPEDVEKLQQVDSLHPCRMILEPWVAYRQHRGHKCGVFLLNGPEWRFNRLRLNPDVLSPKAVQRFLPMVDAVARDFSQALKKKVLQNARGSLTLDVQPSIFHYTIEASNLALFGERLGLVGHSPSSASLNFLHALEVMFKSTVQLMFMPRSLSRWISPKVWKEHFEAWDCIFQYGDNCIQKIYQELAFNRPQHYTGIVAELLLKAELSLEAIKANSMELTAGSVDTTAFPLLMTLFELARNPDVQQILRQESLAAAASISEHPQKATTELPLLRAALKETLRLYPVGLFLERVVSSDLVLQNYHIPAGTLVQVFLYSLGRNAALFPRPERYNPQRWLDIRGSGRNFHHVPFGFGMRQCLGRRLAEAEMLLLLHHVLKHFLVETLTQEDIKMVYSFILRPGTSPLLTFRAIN
Experiment: aldosterone production from DOC in CYP11B2-transfected HEK-293 cells, HPLC-MS/MS; Km/Vmax shift
Assay type: cell-based

`CC(=O)[C@H]1CC[C@H]2[C@@H]3CCC4=CC(=O)CC[C@]4(C)[C@H]3CC[C@]12C` [progesterone] gave a pIC50 of 5.65.
